PubChem BioAssay (NCI)
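A five-concentration, 48-hour dose response in 96-well plates underlies each endpoint, interpolated linearly between surrounding concentrations. TGI is the concentration that stops growth completely.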

How the values were obtained:
Assay in all cases: DTP human tumour cell line panel, 48 h
[1] = system: DMS 114 small cell lung
[2] = system: HL-60(TB) leukemia
[3] = system: LOX IMVI melanoma
[4] = system: SK-MEL-5 melanoma
[5] = system: SNB-78 CNS
[6] = system: NCI-H522 lung
[7] = system: SK-OV-3 ovarian
[8] = system: COLO 205 colon
[9] = system: DLD-1 colon
[10] = system: DMS 273 small cell lung
[11] = system: HCT-15 colon
[12] = system: KM12 colon
[13] = system: ACHN renal
[14] = system: NCI-H226 lung
[15] = system: CAKI-1 renal
[16] = system: OVCAR-4 ovarian
[17] = system: RXF-631 renal
[18] = system: 786-0 renal
[19] = system: RXF 393 renal
[20] = system: OVCAR-5 ovarian
[21] = system: RPMI-8226 leukemia
[22] = system: A498 renal
[23] = system: SK-MEL-28 melanoma
[24] = system: SF-295 CNS
[25] = system: NCI-H460 lung
[26] = system: K-562 leukemia
[27] = system: SW-620 colon
[28] = system: LXFL 529 NSCLC
[29] = system: CCRF-CEM leukemia
[30] = system: TK-10 renal
[31] = system: KM20L2 colon
[32] = system: M14 melanoma
[33] = system: MALME-3M melanoma
[34] = system: M19-MEL melanoma
[35] = system: XF 498 CNS
[36] = system: NCI-H23 lung
[37] = system: EKVX NSCLC
[38] = system: UACC-257 melanoma
[39] = system: SNB-19 CNS
[40] = system: SF-539 CNS
[41] = system: HOP-92 NSCLC
[42] = system: HT29 colon
[43] = system: UO-31 renal
[44] = system: SNB-75 CNS
[45] = system: SN12C renal
[46] = system: SF-268 CNS
[47] = system: OVCAR-3 ovarian
[48] = system: A549 NSCLC
[49] = system: HOP-62 NSCLC
[50] = system: OVCAR-8 ovarian
[51] = system: UACC-62 melanoma
[52] = system: HCT-116 colon
[53] = system: IGROV1 ovarian
[54] = system: U251 CNS
[55] = system: HCC-2998 colon
[56] = system: SK-MEL-2 melanoma
[57] = system: MOLT-4 leukemia
[58] = system: HOP-18 NSCLC
[59] = system: SR leukemia

Compound: COC(=O)C(Cc1c[nH]c2ccccc12)NC(=O)C(Cc1c[nH]c2ccccc12)NC(=O)OCc1ccccc1 (centres undefined)
- TGI [1]: 33.5 µM
- TGI [2]: 48.7 µM
- TGI [3]: 32.2 µM
- TGI [4]: 82.2 µM
- TGI [5]: 60.2 µM
- TGI [6]: 32.2 µM
- TGI [7]: 34.3 µM
- TGI [8]: 30.6 µM
- TGI [9]: 32.7 µM
- TGI [10]: 29.8 µM
- TGI [11]: 31.3 µM
- TGI [12]: 33.5 µM
- TGI [13]: 39.2 µM
- TGI [14]: 40.3 µM
- TGI [15]: 40 µM
- TGI [16]: 30.1 µM
- TGI [17]: 51.1 µM
- TGI [18]: 29.7 µM
- TGI [19]: 35.1 µM
- TGI [20]: 31.5 µM
- TGI [21]: 34.6 µM
- TGI [22]: > 100 µM
- TGI [23]: 31.8 µM
- TGI [24]: 31.9 µM
- TGI [25]: 32 µM
- TGI [26]: 56.6 µM
- TGI [27]: 31.3 µM
- TGI [28]: 31.2 µM
- TGI [29]: 61.3 µM
- TGI [30]: 41.4 µM
- TGI [31]: 32.2 µM
- TGI [32]: 38 µM
- TGI [33]: > 100 µM
- TGI [34]: 32.4 µM
- TGI [35]: 30.7 µM
- TGI [36]: 32.2 µM
- TGI [37]: 33.5 µM
- TGI [38]: > 100 µM
- TGI [39]: 31.6 µM
- TGI [40]: 30.4 µM
- TGI [41]: 48.6 µM
- TGI [42]: 34.7 µM
- TGI [43]: 44 µM
- TGI [44]: 39.9 µM
- TGI [45]: 30.9 µM
- TGI [46]: 34.6 µM
- TGI [47]: 29 µM
- TGI [48]: 33 µM
- TGI [49]: 37.6 µM
- TGI [50]: 31.7 µM
- TGI [51]: 33.4 µM
- TGI [52]: 32.4 µM
- TGI [53]: 36.6 µM
- TGI [54]: 30.6 µM
- TGI [55]: 31.6 µM

Compound: CC12OC3(O)C4C5CC(C6C5C3C61)C42 (centres undefined)
- TGI [1]: > 100 µM
- TGI [2]: > 100 µM
- TGI [5]: > 100 µM
- TGI [6]: > 100 µM
- TGI [7]: > 100 µM
- TGI [8]: > 100 µM
- TGI [9]: > 100 µM
- TGI [10]: > 100 µM
- TGI [11]: > 100 µM
- TGI [12]: > 100 µM
- TGI [13]: > 100 µM
- TGI [14]: > 100 µM
- TGI [15]: > 100 µM
- TGI [16]: > 100 µM
- TGI [17]: > 100 µM
- TGI [18]: > 100 µM
- TGI [19]: > 100 µM
- TGI [56]: > 100 µM
- TGI [21]: > 100 µM
- TGI [23]: > 100 µM
- TGI [26]: > 100 µM
- TGI [57]: > 100 µM
- TGI [27]: > 100 µM
- TGI [28]: 53.1 µM
- TGI [29]: > 100 µM
- TGI [30]: > 100 µM
- TGI [31]: > 100 µM
- TGI [32]: > 100 µM
- TGI [58]: > 100 µM
- TGI [33]: > 100 µM
- TGI [34]: > 100 µM
- TGI [38]: > 100 µM
- TGI [39]: > 100 µM
- TGI [40]: > 100 µM
- TGI [59]: > 100 µM
- TGI [43]: > 100 µM
- TGI [44]: > 100 µM
- TGI [45]: > 100 µM
- TGI [46]: > 100 µM
- TGI [48]: > 100 µM
- TGI [49]: > 100 µM
- TGI [50]: > 100 µM
- TGI [51]: > 100 µM
- TGI [52]: > 100 µM
- TGI [54]: > 100 µM
- TGI [55]: > 100 µM

Compound: COc1cc(C(=O)C(CO)Oc2ccccc2OC)ccc1O (centres undefined)
- TGI [1]: > 100 µM
- TGI [2]: > 100 µM
- TGI [4]: > 100 µM
- TGI [5]: > 100 µM
- TGI [6]: > 100 µM
- TGI [7]: > 100 µM
- TGI [8]: > 100 µM
- TGI [9]: > 100 µM
- TGI [10]: > 100 µM
- TGI [11]: > 100 µM
- TGI [12]: > 100 µM
- TGI [13]: > 100 µM
- TGI [14]: > 100 µM
- TGI [15]: > 100 µM
- TGI [16]: > 100 µM
- TGI [17]: > 100 µM
- TGI [18]: > 100 µM
- TGI [20]: > 100 µM
- TGI [23]: > 100 µM
- TGI [24]: > 100 µM
- TGI [25]: > 100 µM
- TGI [26]: > 100 µM
- TGI [57]: > 100 µM
- TGI [27]: > 100 µM
- TGI [28]: > 100 µM
- TGI [29]: > 100 µM
- TGI [30]: > 100 µM
- TGI [31]: > 100 µM
- TGI [32]: > 100 µM
- TGI [58]: > 100 µM
- TGI [33]: > 100 µM
- TGI [34]: > 100 µM
- TGI [36]: > 100 µM
- TGI [37]: > 100 µM
- TGI [38]: > 100 µM
- TGI [39]: > 100 µM
- TGI [40]: > 100 µM
- TGI [59]: > 100 µM
- TGI [41]: > 100 µM
- TGI [42]: > 100 µM
- TGI [43]: > 100 µM
- TGI [44]: > 100 µM
- TGI [45]: > 100 µM
- TGI [46]: > 100 µM
- TGI [47]: > 100 µM
- TGI [48]: > 100 µM
- TGI [49]: > 100 µM
- TGI [50]: > 100 µM
- TGI [51]: > 100 µM
- TGI [52]: > 100 µM
- TGI [53]: > 100 µM
- TGI [54]: > 100 µM
- TGI [55]: > 100 µM
